Like-named read-outs stand apart in the source and are kept apart here.
How the values were obtained:
mouse bone marrow cell = details: 60 mg/kg positive control; for Number of Micronucleus-containing PCEs: 5000 PCEs tested
Experimental: The mice were given the samples every 24 h. […] They were executed at 6 h after the last gavage of sample, with the sternal bone marrow taken, prepared into slides, fixed in methanol and stained with Giemsa.
3.4.3 Outcome measure: During the microscopy, 1,000 polychromatic erythrocytes (PCE) were counted for each animal to calculate the micronucleus rate (MN‰).

mouse sperm = assay: Mouse sperm malformation test; details: 2.0 mg/kg positive control
Kunming mice = assay: Length of sodium pentobarbital-induced sleep of mice with medicinal insomnia (ephedrine, prednisone); assay type: in vivo; details: sodium pentobarbital 50 mg/kg ip
Experimental: Kunming mice, male, 18-22 g in weight;
60 mice were taken and placed into the laboratory for one week for acclimatization. Then they were randomly divided into 6 groups and dosed according to the drug and dosage in the table.
The investigational drug and insomnia-induced drugs were proportionally prepared into soybean oil solutions as investigational products, which were administered with via intragastric gavage with the intragastric volume calculated by 0.1 mL per 10 g body weight. The blank group was directly given soybean oil via intragastric gavage once daily, for consecutive 7 days. Mice were fasted at 8 h prior to the last dosing and given sodium pentobarbital (50 mg/kg) via intraperitoneal injection at 30 min after dosing, at the indoor temperature of 20° C. and the humidity of 40%. Measurements were made by using the righting reflex tester, the absence of righting reflex over 1 min was deemed as falling asleep, and the absence time and recovery time of righting reflex were observed and recorded. The duration from the absence of righting reflex to its recovery was the length of sleep.

[1] = GC fingerprint: study on the sample stability; assay type: physicochemical; details: Semen Ziziphi Spinosae oil sample 2 test solution; for Relative peak area, RSD (%) / Relative retention time, RSD (%): RSD over 0-12 h; for Relative peak area, Mean / Relative retention time, Mean: mean over 0-12 h; for Relative peak area, standing time 0 / Relative retention time, standing time 0: tested at 0 h; for Relative peak area, standing time 0 / Relative retention time, standing time 0 / Relative peak area, standing time 3 / Relative retention time, standing time 3 / Relative peak area, standing time 6 / Relative retention time, standing time 6 / Relative peak area, standing time 9 / Relative retention time, standing time 9 / Relative peak area, standing time 12 / Relative retention time, standing time 12: GC; for Relative peak area, standing time 3 / Relative retention time, standing time 3: tested at 3 h; for Relative peak area, standing time 6 / Relative retention time, standing time 6: tested at 6 h; for Relative peak area, standing time 9 / Relative retention time, standing time 9: tested at 9 h; for Relative peak area, standing time 12 / Relative retention time, standing time 12: tested at 12 h
Experimental: Take 0.4 g of test sample, place into a 50 mL flask, add 6 mL of sodium hydroxide-methanol solution, and then connect with condenser water bath, and recirculate until the oil drops disappear, and slowly shake the flask every 30 sec to avoid solids formed by sodium hydroxide from being adhered onto the flask wall; recirculate 10 min, add 7 mL of boron trifluoride-methanol solution into the boiled solution through the top of the condenser using a pipette, boil for another 3 min, add 5 mL of isooctane into the boiling mixed solution through the top of the condenser, remove the condenser, take out the flask, add in 20 mL of sodium chloride solution immediately, plug the flask, shake the flask violently for 15 sec, transfer the mixed solution into a 150 mL separatory funnel, rinse the flask with 10 mL of isooctane solution twice (5 mL each time), merge the washing liquid into the separatory funnel, let the funnel stand still to stratify the solution, abandon the subnatant water liquid, place the supernatant isooctane solution into a 25 mL flask, fix the volume using isooctane, add a proper amount of sodium sulfate anhydrous to absorb the trace amount of water in the solution, shake the flask well and put aside for subsequent use.
GC: PerKinElmer Clarus 680
Chromatographic column: Agilent J&W Scientific DB-WAX quartz capillary column ([…]×0.32 mm, 0.25 μm)
Injector temperature: 270° C.,
Precisely draw 1 μL standard solution and 1 μL test solution into the gas chromatograph and conduct the test.
Semen Ziziphi Spinosae oil sample 2 was taken and prepared into test solution according to the preparation method under the item “3. Preparation of test article solution”, and the resulting test solution was tested at different time points (0 h, 3 h, 6 h, 9 h and 12 h) according to the experimental conditions under the item “4. Gas chromatographic conditions”.

Row | Structure (SMILES) | Relative peak area, RSD (%) [1] [%] | Relative retention time, RSD (%) [1] [%] | Relative peak area, Mean [1] | Relative retention time, Mean [1] | Relative peak area, standing time 0 [1] | Relative retention time, standing time 0 [1] | Relative peak area, standing time 3 [1] | Relative retention time, standing time 3 [1] | Relative peak area, standing time 6 [1] | Relative retention time, standing time 6 [1] | Relative peak area, standing time 9 [1] | Relative retention time, standing time 9 [1] | Relative peak area, standing time 12 [1] | Relative retention time, standing time 12 [1] | further results
1 | O=P1(N(CCCl)CCCl)NCCCO1 (stereo not drawn) [Cyclophosphamide, cyclophosphamide] |  |  |  |  |  |  |  |  |  |  |  |  |  |  | Micronucleus-Cell Rate (mouse bone marrow cell; Female mice): 24.6 ± 6.3 ‰; PCE/RBC (mouse bone marrow cell; Female mice): 1.07 ± 0.13; Number of Micronucleus-containing PCEs (mouse bone marrow cell; Female mice): 123; Micronucleus-Cell Rate (mouse bone marrow cell; Male mice): 27.6 ± 10.4 ‰; PCE/RBC (mouse bone marrow cell; Male mice): 1.21 ± 0.14; Number of Micronucleus-containing PCEs (mouse bone marrow cell; Male mice): 138
2 | CO[C@@]12[C@H](COC(N)=O)C3=C(C(=O)C(C)=C(N)C3=O)N1C[C@@H]1N[C@@H]12 [Mitomycin C, mitomycin C] |  |  |  |  |  |  |  |  |  |  |  |  |  |  | Abnormal Rate (mouse sperm): 5.88 ± 0.97 %; Number of Aberrant Sperm: Amorphous (mouse sperm; 5000 sperm tested): 119 n; Number of Aberrant Sperm: Banana (mouse sperm; 5000 sperm tested): 23 n; Number of Aberrant Sperm: Big head (mouse sperm; 5000 sperm tested): 5 n; Number of Aberrant Sperm: Folded (mouse sperm; 5000 sperm tested): 24 n; Number of Aberrant Sperm: Hook-free (mouse sperm; 5000 sperm tested): 113 n; Number of Aberrant Sperm: Subtotal (mouse sperm; 5000 sperm tested): 294 n; Number of Aberrant Sperm: Two-head/two-tail (mouse sperm; 5000 sperm tested): 10 n
3 | C[C@]12C=CC(=O)C=C1CC[C@@H]1[C@@H]2C(=O)C[C@@]2(C)[C@H]1CC[C@]2(O)C(=O)CO [Prednisone, prednisone] |  |  |  |  |  |  |  |  |  |  |  |  |  |  | Length of Sleep (Kunming mice; Prednisone 1 mg/kg alone ig 7 days): 68.4 ± 27.1 min
4 | CN[C@@H](C)[C@H](O)c1ccccc1 [Ephedrine, ephedrine] |  |  |  |  |  |  |  |  |  |  |  |  |  |  | Length of Sleep (Kunming mice; Ephedrine 4 mg/kg alone ig 7 days): 60.8 ± 25.3 min
5 | CC/C=C\C/C=C\C/C=C\CCCCCCCC(=O)OC [Peak 5] | 1.57 | 0.04 | 0.009 | 1.1834 | 0.009 | 1.184 | 0.009 | 1.184 | 0.009 | 1.184 | 0.009 | 1.183 | 0.009 | 1.183 | 
6 | CCCCCCCCCCCCCCCCCCCC(=O)OC [Peak 8] | 1.16 | 0.03 | 0.023 | 1.3064 | 0.023 | 1.307 | 0.023 | 1.307 | 0.023 | 1.306 | 0.023 | 1.306 | 0.023 | 1.306 | 
7 | CCCCCCCC/C=C\CCCCCCCC(=O)OC [Peak s] | 0.00 | 0.00 | 1.000 | 1.0000 | 1.000 | 1.000 | 1.000 | 1.000 | 1.000 | 1.000 | 1.000 | 1.000 | 1.000 | 1.000 | 
8 | CCCCCCCCCCCCCCCCCCCCCC(=O)OC [Peak 11] | 1.65 | 0.08 | 0.020 | 1.6532 | 0.020 | 1.655 | 0.021 | 1.654 | 0.021 | 1.653 | 0.021 | 1.651 | 0.021 | 1.653 | 

Reference: patent US10881704B2, “Usage of semen Ziziphi spinosae oil in the treatment of medicinal insomnia” (SHIJIAZHUANG YILING PHARMACEUTICAL CO., LTD., priority 2016, dated 2021)
